Test results reported in patent US20130203756A1, “ISOINDOLINE PDE10 INHIBITORS” (priority 2010, published 2013).

These compounds were tested against T1, human PDE10A2 (Homo sapiens, UniProt Q9Y233) (assay: PDE10 inhibitory activity, IMAP fluorescence polarization (FP) assay). Conditions: apparent inhibition constant, FAM-labeled cAMP 50 nM, room temperature, read-out: PDE10A Ki.
T1 construct: made in house; host or cells: AD293 cells, transient transfection; cytosolic supernatant of the sonicated lysate used as enzyme
T1 sequence (Q9Y233 267-1055): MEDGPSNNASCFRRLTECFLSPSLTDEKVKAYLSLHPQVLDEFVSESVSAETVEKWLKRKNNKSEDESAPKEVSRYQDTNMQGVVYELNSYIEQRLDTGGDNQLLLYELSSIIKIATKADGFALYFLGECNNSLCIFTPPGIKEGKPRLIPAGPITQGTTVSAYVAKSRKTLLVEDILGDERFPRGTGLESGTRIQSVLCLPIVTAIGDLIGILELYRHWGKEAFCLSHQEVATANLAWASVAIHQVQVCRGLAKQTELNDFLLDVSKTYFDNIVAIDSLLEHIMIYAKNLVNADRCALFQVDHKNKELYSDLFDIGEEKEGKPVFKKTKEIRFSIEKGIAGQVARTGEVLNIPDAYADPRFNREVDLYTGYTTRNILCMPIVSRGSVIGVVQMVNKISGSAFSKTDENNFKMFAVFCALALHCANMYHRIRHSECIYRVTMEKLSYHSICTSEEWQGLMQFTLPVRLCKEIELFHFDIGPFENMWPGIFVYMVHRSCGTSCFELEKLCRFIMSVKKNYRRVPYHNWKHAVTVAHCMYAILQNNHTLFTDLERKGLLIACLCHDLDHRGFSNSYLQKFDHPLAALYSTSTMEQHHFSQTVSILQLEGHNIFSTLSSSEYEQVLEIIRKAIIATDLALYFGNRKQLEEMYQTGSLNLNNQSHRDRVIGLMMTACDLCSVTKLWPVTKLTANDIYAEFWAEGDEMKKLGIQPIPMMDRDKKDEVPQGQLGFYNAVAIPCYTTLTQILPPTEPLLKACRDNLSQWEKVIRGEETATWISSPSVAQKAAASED
Format: biochemical
Method: The activity of the compounds in accordance with the present invention as PDE10 inhibitors may be readily determined without undue experimentation using a fluorescence polarization (FP) methodology that is well known in the art (Huang, W., et al., J. Biomol Screen, 2002, 7: 215).
In a typical experiment the PDE 10 inhibitory activity of the compounds of the present invention was determined in accordance with the following experimental method. PDE10A2 was amplified from human fetal brain cDNA (Clontech, Mountain View, Calif.) using a forward primer corresponding to nucleotides 56-77 of human PDE10A2 (Accession No. AF127480, Genbank Identifier 4894716), containing a Kozak consensus sequence, and a reverse primer corresponding to nucleotides 2406-2413 of human PDE10A2 (Accession No. AF127480, Genbank Identifier 4894716). Amplification with Easy-A polymerase (Stratagene, La Jolla, Calif.) was 95° C. for 2 minutes followed by thirty three cycles of 95° C. for 40 seconds, 55° C. for 30 seconds, and 72° C. for 2 minutes 48 seconds. Final extension was 72° C. for 7 minutes. The PCR product was TA cloned into pcDNA3.2-TOPO (Invitrogen, Carlsbad, Calif.) according to standard protocol. AD293 cells with 70-80% confluency were transiently transfected with human PDE10A2/pcDNA3.2-TOPO using Lipofectamine 2000 according to manufacturer specifications (Invitrogen, Carlsbad, Calif.). Cells were harvested 48 hours post-transfection and lysed by sonication (setting 3, 10×5 sec pulses) in a buffer containing 20 mM HEPES, 1 mM EDTA and protease inhibitor cocktail (Roche). Lysate was collected by centrifugation at 75,000×g for 20 minutes. Supernatant containing the cytoplasmic fraction was used for evaluation of PDE10A2 activity. The fluorescence polarization assay for cyclic nucleotide phosphodiesterases was performed using an IMAP® FP kit supplied by Molecular Devices, Sunnyvale, Calif. (product #R8139). IMAP® technology has been applied previously to phosphodiesterase assays (Huang, W., et al., J. Biomol Screen, 2002, 7: 215). Assays were performed at room temperature in 384-well microtiter plates with an incubation volume of 20.2 μL. Solutions of test compounds were prepared in DMSO and serially diluted with DMSO to yield 8 μL of each of 10 solutions differing by 3-fold in concentration, at 32 serial dilutions per plate. 100% inhibition is determined using a known PDE10 inhibitor, which can be any compound that is present at 5,000 times its Ki value in the assay described as follows, such as papaverine (see Siuciak, et al. Neuropharmacology (2006) 51:386-396; Becker, et al. Behav Brain Res (2008) 186(2):155-60; Threlfell, et al., J Pharmacol Exp Ther (2009) 328(3):785-795), 2-{4-[pyridin-4-yl-1-(2,2,2-trifluoroethyl)-1H-pyrazol-3-yl]phenoxymethyl}quinoline succinic acid or 2-[4-(1-methyl-4-pyridin-4-yl-1H-pyrazol-3-yl)-phenoxymethyl]quinoline succinic acid (see Schmidt, et al. J Pharmacol Exp Ther (2008) 325:681-690; Threlfell, et al., J Pharmacol Exp Ther (2009) 328(3): 785-795), 0% of inhibition is determined by using DMSO (1% final concentrations).
A Labcyte Echo 555 (Labcyte, Sunnyvale, Calif.) is used to dispense […] from each well of the titration plate to the 384 well assay plate. A solution of enzyme (1/1600 dilution from aliquots; sufficient to produce 20% substrate conversion) and a separate solution of FAM-labeled cAMP PDE from Molecular Devices (product #R7506), at a final concentration of 50 nM are made in the assay buffer (10 mM Tris HCl, pH 7.2, 10 mM MgCl2, 0.05% NaN3 0.01% Tween-20, and 1 mM DTT). The enzyme and the substrate are then added to the assay plates in two consecutive additions of 10 μL, and then shaken to mix. The reaction is allowed to proceed at room temperature for 30 minutes. A binding solution is then made from the kit components, comprised of 80% Solution A, 20% Solution B and binding reagent at a volume of 1/600 the total binding solution. […]
With `Cc1ccc([C@@H]2C[C@H]2CN2Cc3c(cccc3-c3ncco3)C2=O)nc1` (single isomer, unassigned) [Compound 1-50, 2-{[(1S,2S) or (1R,2R)-2-(5-methylpyridin-2-yl)cyclopropyl]methyl}-4-(1,3-oxazol-2-yl)-2,3-dihydro-1H-isoindol-1-one] the Ki was 0.61 nM. In the case of `COc1ccc(-c2cc3ccccc3nc2CCN2Cc3c(cccc3-c3ncco3)C2=O)cc1` [Compound C-5, 2-{2-[3-(4-methoxyphenyl)quinolin-2-yl]ethyl}-4-(1,3-oxazol-2-yl)-2,3-dihydro-1H-isoindol-1-one], the Ki is reported as 0.011 nM. In the case of `Cn1cc(CNc2cc3c(c(-c4ncco4)n2)CN(CCc2cn4ccccc4n2)C3=O)cn1` [Compound J-9], the Ki is reported as 11.2 nM. `O=C1c2cccc(-n3cccn3)c2CN1CCc1ccc2ccccc2n1` [Compound 1-17, 4-(1H-pyrazol-1-yl)-2-[2-(quinolin-2-yl)ethyl]-2,3-dihydro-1H-isoindol-1-one] showed a Ki of 0.46 nM. Compound `CC(CN1Cc2c(cccc2-c2ncco2)C1=O)c1cn2ccccc2n1` (centres unmarked) [Compound E-5, 2-[2-(imidazo[1,2-a]pyridin-2-yl)propyl]-4-(1,3-oxazol-2-yl)-2,3-dihydro-1H-isoindol-1-one] has a Ki of 5.7 nM. Compound `O=C1c2cccc(-c3ncco3)c2CN1CC1CC1c1cn2ccccc2n1` (centres unmarked) [Compound M-6, 2-((2-(imidazo[1,2-a]pyridin-2-yl)cyclopropyl)methyl)-4-(oxazol-2-yl)isoindolin-1-one] has a Ki of 0.14 nM. Work on `O=C1c2cccc(-c3nccs3)c2CN1CCc1csc(-c2ccn[nH]2)n1` [Compound 1-40, 2-(2-(2-(1H-pyrazol-5-yl)thiazol-4-yl)ethyl)-4-(thiazol-2-yl)isoindolin-1-one] yielded a Ki of 5.8 nM. In the case of `O=C1c2cccc(-c3cscn3)c2CN1CCc1csc(-c2ccn[nH]2)n1` [Compound K-4, 2-(2-(2-(1H-pyrazol-5-yl)thiazol-4-yl)ethyl)-4-(thiazol-4-yl)isoindolin-1-one], the Ki is reported as 0.31 nM. Work on `O=C1c2cccc(-c3ncco3)c2CN1CCc1ccc2c(n1)CCCC2` [Compound F-6, 4-(1,3-oxazol-2-yl)-2-[2-(5,6,7,8-tetrahydroquinolin-2-yl)ethyl]-2,3-dihydro-1H-isoindol-1-one] yielded a Ki of 2.3 nM. With `Cn1cc(-c2cccc3c2CN(CCc2ccc4ncccc4n2)C3=O)nn1` [Compound H-2, 4-(1-methyl-1H 1,2,3-triazol-4-yl)-2-[2-(1,5-naphthyridin-2-yl)ethyl]isoindolin-1-one] the Ki was 50 nM. Work on `COc1ccc(-n2c(CCN3Cc4cccc(OC(C)C)c4C3=O)nc3ccccc3c2=O)cc1` (single isomer, unassigned) [Compound B-6, 3-(4-methoxyphenyl)-2-{2-[1-oxo-7-(propan-2-yloxy)-1,3-dihydro-2H-isoindol-2-yl]ethyl}quinazolin-4(3H)-one] yielded a Ki of 2.9 nM. In the case of `O=C1c2cccc(-c3ncco3)c2CN1CCc1ccc2c(n1)CCCC2O` (centres unmarked) [Compound 1-29, 2-[2-(5-hydroxy-5,6,7,8-tetrahydroquinolin-2-yl)ethyl]-4-(1,3-oxazol-2-yl)-2,3-dihydro-1H-isoindol-1-one], the Ki is reported as 4.6 nM. With `COc1ccc(-n2c(CCN3Cc4c(cccc4-c4ncco4)C3=O)nc3ccccc3c2=O)cc1` [Compound A-4, 3-(4-methoxyphenyl)-2-{2-[4-(1,3-oxazol-2-yl)-1-oxo-1,3-dihydro-2H-isoindol-2-yl]ethyl}quinazolin-4(3H)-one] the Ki was 0.19 nM. In the case of `O=C1c2cccc(-n3cccn3)c2CN1CCc1ccc2ncccc2n1` [Compound D-4, 2-[2-(1,5-naphthyridin-2-yl)ethyl]-4-(1H-pyrazol-1-yl)-2,3-dihydro-1H-isoindol-1-one], the Ki is reported as 10.9 nM. With `Cc1ccc([C@@H]2C[C@H]2CN2Cc3c(cccc3-n3cccn3)C2=O)nc1` (single isomer, unassigned) [Compound 1-54, 2-{[(1S,2S) or (1R,2R)-2-(5-methylpyridin-2-yl)cyclopropyl]methyl}-4-(1H-pyrazol-1-yl)-2,3-dihydro-1H-isoindol-1-one] the Ki was 0.86 nM. With `COc1ccc(-n2c(CCN3Cc4c(Br)cccc4C3=O)nc3ccccc3c2=O)cc1` [Compound A-3, 2-[2-(4-bromo-1-oxo-1,3-dihydro-2H-isoindol-2-yl)ethyl]-3-(4-methoxyphenyl)quinazolin-4(3H)-one] the Ki was 16 nM. `COc1ccc(-n2c(CCN3Cc4c(OC(C)C)cccc4C3=O)nc3ccccc3c2=O)cc1` (single isomer, unassigned) [Compound B-7, 3-(4-methoxyphenyl)-2-{2-[1-oxo-4-(propan-2-yloxy)-1,3-dihydro-2H-isoindol-2-yl]ethyl}quinazolin-4(3H)-one] was tested, and the Ki was 1.2 nM. `O=C1c2cc(O)cc(Br)c2CN1CCc1ccc2ncccc2n1` [Compound I-4, 4-Bromo-6-hydroxy-2-[2-(1,5naphthyridin-2-yl)ethyl]isoindolin-1-one] showed a Ki of 17.2 nM. `O=C1c2cccc(-c3cscn3)c2CN1CCc1nc2ccccc2cc1C1CC1` [Compound 1-27, 2-[2-(3-cyclopropylquinolin-2-yl)ethyl]-4-(1,3-thiazol-4-yl)-2,3-dihydro-1H-isoindol-1-one] showed a Ki of 0.1 nM. `O=C1c2cccc(-c3cscn3)c2CN1CCc1ccc2c(n1)CCCC2O` (centres unmarked) [Compound 1-28, 2-[2-(5-hydroxy-5,6,7,8-tetrahydroquinolin-2-yl)ethyl]-4-(1,3-thiazol-4-yl)-2,3-dihydro-1H-isoindol-1-one] was tested, and the Ki was 1.2 nM.
